Read-outs that look alike come from different tables or passages of the source.
Legend:
Pseudomonas aeruginosa = assay: MIC, 25 ocular isolates, broth microdilution (Example 8); assay type: cell-based
Experimental: (§1) • Mueller-Hinton Broth in tubes was inoculated with 25 ocular isolates of Staphylococcus aureus fluoroquinolone-susceptible, Staphylococcus aureus fluoroquinolone-resistant, Staphylococcus epidermidis (Coagulase-negative Staphylococcus) fluoroquinolone-susceptible, Staphylococcus epidermidis (Coagulase-negative Staphylococcus) fluoroquinolone-resistant, Pseudomonas aeruginosa and Serratia marcescens, plus two controls (Staphylococcus aureus and E. coli) and incubated at 37° C. overnight on a shaker set at 250 rpm.
(§2) On the day of testing, a 640 μg/ml (1280 μg/ml for Serratia marcescens and Pseudomonas aeruginosa) concentration was prepared from a 1% stock solution in 0.01% acetic acid, 0.2% BSA in polypropylene tubes.
(§3) Serial doubling dilutions in 0.01% acetic acid, 0.2% BSA in 96 well polypropylene plates, which are used as reservoirs for the inoculation of the test plates, were carried out to obtain serial dilutions of test agents at 10 times the required test concentrations: 640, 320, 160, 80, 40, 20, 10, 5, 2.5, 1.25, and 0.625 μg/ml (1280, 640, 320, 160, 80, 40, 20, 10, 5, 2.5, and 1.25 μg/ml for Serratia marcescens and Pseudomonas aeruginosa).
(§4) Ten μl of diluted 10×test agents was added to each well of one row of the 96 well polypropylene plates from column 2 to column 12 (column 1 is a control for bacteria alone, with no peptide). Test agent concentrations in columns 2-12 were as follows: 64, 32, 16, 8, 4, 2, 1, 0.5, 0.25, 0.125, and 0.0625 μg/ml (128, 64, 32, 16, 8, 4, 2, 1, 0.5, 0.25, and 0.125 μg/ml for Serratia marcescens and Pseudomonas aeruginosa). The same peptide was in each of the 8 rows. One plate contained dilutions of one test agent and 8 bacterial isolates.
(§5) On the day of testing, the overnight bacterial broth cultures of Staphylococcus aureus fluoroquinolone-susceptible, Staphylococcus aureus fluoroquinolone-resistant, Staphylococcus epidermidis (Coagulase-negative Staphylococcus) fluoroquinolone-susceptible, Staphylococcus epidermidis (Coagulase-negative Staphylococcus) fluoroquinolone-resistant, Serratia marcescens, and Pseudomonas aeruginosa, plus two controls (Staphylococcus aureus and E. coli) were diluted in 5 ml of trypticase soy broth to yield turbidity equal to a 0.5 McFarland standard. The final inoculum for MIC testing for Staphylococcus aureus fluoroquinolone-susceptible, Staphylococcus aureus fluoroquinolone-resistant, Staphylococcus epidermidis (Coagulase-negative Staphylococcus) fluoroquinolone-susceptible, Staphylococcus epidermidis (Coagulase-negative Staphylococcus) fluoroquinolone-resistant, Serratia marcescens, and Pseudomonas aeruginosa was achieved by placing 0.05 ml of the turbidity adjusted sample to 5 ml of Mueller-Hinton broth.
(§6) Ninety μl of the bacterial suspensions was dispensed in each well from column 1 to column 12. Each bacterial isolate was placed in one row of a 96 well polypropylene plate containing the test agents. The plates were placed on shaker at 15 minutes at room temperature, and then incubated at 37° C. overnight. MICs were determined visually as the lowest concentration of drug that inhibits visible bacterial growth.

Serratia marcescens = assay: as above; assay type: cell-based
Experimental: as §1, §2, §3, §4, §5, §6

[1] = 25 isolates, Summary of Results, >128 was Replaced with 256

N=C(N)NCCCCC(=O)Nc1cc(C(F)(F)F)cc(NC(=O)c2cnc(C(=O)Nc3cc(C(F)(F)F)cc(NC(=O)CCCCNC(=N)N)c3SCCN)cn2)c1SCCN [Oligomer 5]
> 128 µg/mL: MIC (Pseudomonas aeruginosa; Pseudomonas aeruginosa, isolate 7—K1564, read-out: MIC) | MIC (Serratia marcescens; Serratia marcescens, isolate 1—K1681, read-out: MIC) | MIC (Serratia marcescens; Serratia marcescens, isolate 2—K1674, read-out: MIC) | MIC (Serratia marcescens; Serratia marcescens, isolate 3—K1558, read-out: MIC) | MIC (Serratia marcescens; Serratia marcescens, isolate 4—K1538, read-out: MIC) | MIC (Serratia marcescens; Serratia marcescens, isolate 5—K1503, read-out: MIC) | MIC (Serratia marcescens; Serratia marcescens, isolate 6—K1216, read-out: MIC) | MIC (Serratia marcescens; Serratia marcescens, isolate 7—K1496, read-out: MIC) | MIC (Serratia marcescens; Serratia marcescens, isolate 8—K1481, read-out: MIC) | MIC (Serratia marcescens; Serratia marcescens, isolate 9—K1470, read-out: MIC) | MIC (Serratia marcescens; Serratia marcescens, isolate 10—K1468, read-out: MIC) | MIC (Serratia marcescens; Serratia marcescens, isolate 11—K1467, read-out: MIC) | MIC (Serratia marcescens; Serratia marcescens, isolate 12—K1462, read-out: MIC) | MIC (Serratia marcescens; Serratia marcescens, isolate 14—K1413, read-out: MIC) | MIC (Serratia marcescens; Serratia marcescens, isolate 16—K1357, read-out: MIC) | MIC (Serratia marcescens; Serratia marcescens, isolate 18—K1327, read-out: MIC) | MIC (Serratia marcescens; Serratia marcescens, isolate 19—K1321, read-out: MIC) | MIC (Serratia marcescens; Serratia marcescens, isolate 20—K1315, read-out: MIC) | MIC (Serratia marcescens; Serratia marcescens, isolate 21—K1306, read-out: MIC) | MIC (Serratia marcescens; Serratia marcescens, isolate 22—K1290, read-out: MIC) | MIC (Serratia marcescens; Serratia marcescens, isolate 23—K1265, read-out: MIC) | MIC (Serratia marcescens; Serratia marcescens, isolate 24—K1263, read-out: MIC) | MIC (Serratia marcescens; Serratia marcescens, isolate 25—K1239, read-out: MIC)
256 µg/mL: MIC50 (Serratia marcescens; 25 isolates, Row 13, >128 was Replaced with 256) | MIC90 (Serratia marcescens; 25 isolates, Row 22, >128 was Replaced with 256) | MIC (Serratia marcescens; Serratia marcescens, n=25 per group, read-out: Median MIC) | MIC50 (Serratia marcescens; Serratia marcescens, 25 isolates, Summary of Results, >128 was Replaced with 256, read-out: MIC50) | MIC90 (Serratia marcescens; Serratia marcescens, 25 isolates, Summary of Results, >128 was Replaced with 256, read-out: MIC90) | MIC (Serratia marcescens; Serratia marcescens, 25 isolates, Summary of Results, >128 was Replaced with 256, read-out: Median MIC) | MIC50 (Serratia marcescens; n=25 per group) | MIC90 (Serratia marcescens; n=25 per group)
8 µg/mL: MIC (Serratia marcescens; Serratia marcescens, isolate 15—K1402, read-out: MIC)
64 µg/mL: MIC50 (Pseudomonas aeruginosa; 25 isolates, Row 13) | MIC (Pseudomonas aeruginosa; Pseudomonas aeruginosa, 25 ocular isolates, read-out: Median MIC) | MIC (Pseudomonas aeruginosa; Pseudomonas aeruginosa, isolate 2—K1668, read-out: MIC) | MIC (Pseudomonas aeruginosa; Pseudomonas aeruginosa, isolate 3—K1662, read-out: MIC) | MIC (Pseudomonas aeruginosa; Pseudomonas aeruginosa, isolate 4—K1657, read-out: MIC) | MIC (Pseudomonas aeruginosa; Pseudomonas aeruginosa, isolate 6—K1649, read-out: MIC) | MIC (Pseudomonas aeruginosa; Pseudomonas aeruginosa, isolate 10—K1633, read-out: MIC) | MIC (Pseudomonas aeruginosa; Pseudomonas aeruginosa, isolate 11—K1632, read-out: MIC) | MIC (Pseudomonas aeruginosa; Pseudomonas aeruginosa, isolate 12—K1631, read-out: MIC) | MIC (Pseudomonas aeruginosa; Pseudomonas aeruginosa, isolate 13—K1629, read-out: MIC) | MIC (Pseudomonas aeruginosa; Pseudomonas aeruginosa, isolate 14—K1627, read-out: MIC) | MIC (Pseudomonas aeruginosa; Pseudomonas aeruginosa, isolate 16—K1625, read-out: MIC) | MIC (Pseudomonas aeruginosa; Pseudomonas aeruginosa, isolate 20—K1594, read-out: MIC) | MIC (Pseudomonas aeruginosa; Pseudomonas aeruginosa, isolate 24—K1577, read-out: MIC) | MIC (Pseudomonas aeruginosa; Pseudomonas aeruginosa, n=25 per group, read-out: Median MIC) | MIC50 (Pseudomonas aeruginosa; Pseudomonas aeruginosa, 25 isolates, Summary of Results, read-out: MIC50) | MIC (Pseudomonas aeruginosa; Pseudomonas aeruginosa, 25 isolates, Summary of Results, read-out: Median MIC) | MIC50 (Pseudomonas aeruginosa; n=25 per group) | MIC (Serratia marcescens; Serratia marcescens, isolate 17—K1351, read-out: MIC)
8 to 256 µg/mL: Range of MICs (Serratia marcescens; [1]) | Range of MICs (Serratia marcescens; n=25 per group)
4 µg/mL: MIC (Pseudomonas aeruginosa; Pseudomonas aeruginosa, isolate 8—K1636, read-out: MIC)
128 µg/mL: MIC (Pseudomonas aeruginosa; Pseudomonas aeruginosa, isolate 5—K1651, read-out: MIC) | MIC (Pseudomonas aeruginosa; Pseudomonas aeruginosa, isolate 9—K1634, read-out: MIC) | MIC (Pseudomonas aeruginosa; Pseudomonas aeruginosa, isolate 15—K1626, read-out: MIC) | MIC (Pseudomonas aeruginosa; Pseudomonas aeruginosa, isolate 17—K1562, read-out: MIC) | MIC (Pseudomonas aeruginosa; Pseudomonas aeruginosa, isolate 19—K1553, read-out: MIC) | MIC (Pseudomonas aeruginosa; Pseudomonas aeruginosa, isolate 21—K1588, read-out: MIC) | MIC (Pseudomonas aeruginosa; Pseudomonas aeruginosa, isolate 22—K1554, read-out: MIC) | MIC (Pseudomonas aeruginosa; Pseudomonas aeruginosa, isolate 25—K1576, read-out: MIC) | MIC90 (Pseudomonas aeruginosa; Pseudomonas aeruginosa, 25 isolates, Summary of Results, read-out: MIC90) | MIC90 (Pseudomonas aeruginosa; n=25 per group) | MIC (Serratia marcescens; Serratia marcescens, 25 ocular isolates, read-out: Median MIC) | MIC (Serratia marcescens; Serratia marcescens, isolate 13—K1461, read-out: MIC)
4 to 256 µg/mL: Range of MICs (Pseudomonas aeruginosa; [1]) | Range of MICs (Pseudomonas aeruginosa; n=25 per group)
32 µg/mL: MIC (Pseudomonas aeruginosa; Pseudomonas aeruginosa, isolate 1—K1673, read-out: MIC) | MIC (Pseudomonas aeruginosa; Pseudomonas aeruginosa, isolate 18—K1613, read-out: MIC) | MIC (Pseudomonas aeruginosa; Pseudomonas aeruginosa, isolate 23—K1580, read-out: MIC)
